This assay has as its system M. tuberculosis H37Rv growth inhibition, 7H9 media. As to the kind of experiment: M. tuberculosis growth inhibition, HTS (AID 449762).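 For all read-outs here: bacterial growth assessed after seven days of incubation.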 The settings on record: for IC90: measured here: IC90 growth inhibition.

Results filed as inconclusive are left out.

Consider `Cc1cc(C)c(CSc2ncc(-c3ccc([N+](=O)[O-])cc3)[nH]2)c(C)c1`, for which the IC50 is 42.5 µM and the IC90 is 62.8 µM. Regarding `COC(=O)C(C)Oc1ccc2c(c1)O/C(=C\c1ccco1)C2=O` (stereo unspecified), the 50% inhibitory concentration (IC50) was 5.58 µM and the IC90 turned out to be 16 µM. Take `O=C(NCCC1=CCCCC1)c1c(O)nc2sccn2c1=O`: the IC50 is 72.8 µM and the 90% effect concentration (IC90) is greater than 100 µM. As to `COc1cc(OC)c(OC)cc1CCC(C)NCCC(c1ccccc1)c1ccccc1` (stereo unspecified), the 50% inhibitory concentration (IC50) is 22.3 µM and the IC90 was determined as 25 µM.

`CCc1cc2c(=O)c(-c3cnn(-c4ccccc4)c3)c(C)oc2c(CN2CCCCC2)c1O`: the IC50 is 2.58 µM and the IC90 was 21.7 µM. In the same order, the values of `CCOC(=O)C1(CCOc2ccccc2)CCN(Cc2cccc(-n3cccn3)c2)CC1` are 25.4 µM and 28.8 µM. Turning to `Cc1nc2ccc(NC(=O)N(C(C)C)C(C)C)cc2s1`, the IC90 was greater than 100 µM. Consider `Cc1ccc(Cn2c(C(CO)Nc3nc(-c4ccc(F)cc4)cs3)nc3ccccc32)cc1` (stereo unspecified), for which the concentration for half-maximal inhibition (IC50) is 42.1 µM and the IC90 is 60.2 µM.

For `Cc1cc(C)nc(Sc2ncnc(N)c2[N+](=O)[O-])n1`, the IC50 is 7.98 µM and the concentration for an effect of 90% (IC90) stood at 20.7 µM.

In the case of `O=C(NCCc1ccccc1)[C@@H]1CC=C[C@@H]2CCN(Cc3ccc(Cl)c(Cl)c3)C(=O)[C@@H]21`, the concentration for half-maximal inhibition (IC50) is 51.3 µM and the concentration for an effect of 90% (IC90) stood at 79.1 µM.

Consider `Cc1cc(C)c2ccc(NN)nc2c1O`, for which the 50% inhibitory concentration (IC50) is 3.6 µM and the IC90 worked out at 4.95 µM. As for `Cc1cc(C)c2nc(-c3ccncc3)cc(C(=O)N3CCN(Cc4ccccc4Cl)CC3)c2c1`, the IC50 is 23.2 µM and the IC90 was found to be 26.1 µM. On to `O=C(c1cc2nc(-c3ccc(F)cc3)cc(C(F)(F)F)n2n1)N1CCCCC1c1cccnc1` (stereo unspecified), for which the IC50 was 14 µM and the IC90 worked out at 31.4 µM. As for `CC(C)(C)NC(=O)COC(=O)c1cc(Br)ccc1Cl`, the half-inhibitory concentration (IC50) is 27.8 µM and the concentration for an effect of 90% (IC90) worked out at 65.1 µM. Turning to `COc1ccc(C(=O)C2CCCN(C3CSCCSC3)C2)c(C)c1` (stereo unspecified), the IC50 is 23.1 µM and the 90% effect concentration (IC90) turned out to be 26.4 µM. Regarding `C(=N\Nc1ccc2ccccc2n1)/c1ccc2c(c1)OCCO2`, the 50% inhibitory concentration (IC50) was 2.77 µM and the IC90 stood at 4.03 µM.

On to `COc1cc(N=Nc2ccc3ccccc3c2)ccc1O`, for which the IC50 was 37.8 µM and the IC90 came out at 63.1 µM. Consider `COc1ccccc1C1CCN(Cc2ccc3ccccc3c2)CC1`, for which the IC50 is 15.7 µM and the IC90 was 21.8 µM. Consider `COc1ccc(CNC[C@@H](CCCCN(C)Cc2ccc(OC)cc2)N2C[C@H](c3ccccc3)N(CCc3ccc(Cl)c(Cl)c3)C(=O)C2=O)cc1`, for which the IC50 was 5.48 µM and the concentration for an effect of 90% (IC90) stood at 8.71 µM.

In the case of `C/C(=N/NC(=O)c1ccccn1)c1c[nH]c2ccccc12`, the IC50 is 6.03 µM and the IC90 amounted to 11.8 µM. As to `O=C([O-])c1ccccc1-[n+]1c(-c2ccccc2)cc(-c2ccccc2)cc1-c1ccccc1`, the IC50 was 15.3 µM and the 90% effect concentration (IC90) turned out to be 20.5 µM. For `O=C(CCc1c[nH]c2ccccc12)N1CCN(S(=O)(=O)c2ccccc2)CC1`, the concentration for half-maximal inhibition (IC50) was 94.3 µM and the concentration for an effect of 90% (IC90) is greater than 100 µM. For `COc1ccccc1C(=O)NC(=Nc1nc2ccccc2o1)NC(=O)c1ccccc1OC`, the 50% inhibitory concentration (IC50) was 96.3 µM and the IC90 was greater than 100 µM. For the compound `O=C(/C=C/c1ccccc1)N1CCN(CCN2C(=O)c3cccc4cccc(c34)C2=O)CC1`, the IC50 is 1.95 µM and the concentration for an effect of 90% (IC90) is 3.87 µM. For the compound `COc1cccc(/C=N/Nc2nc(Nc3ccccc3)nc(-n3nc(C)cc3C)n2)c1O`, the IC50 is less than 0.2 µM and the IC90 was less than 0.2 µM. In the case of `CC(c1nc2ccccc2c(=O)[nH]1)N(C)CCOc1ccc(Cl)cc1` (stereo unspecified), the IC50 is 40.4 µM and the 90% effect concentration (IC90) stood at 51.7 µM.

On to `C=CCN(C(=O)CSc1nc2c(sc3ccccc32)c(=O)n1CCN(CC)CC)c1ccccc1`, for which the IC50 was 29 µM and the IC90 was found to be 36 µM. For the compound `O=C(CCl)Nc1nccs1`, the concentration for half-maximal inhibition (IC50) is 2.01 µM and the concentration for an effect of 90% (IC90) is 4.71 µM. In the same order, the values of `CCOC(=O)C1=C(C)Nc2nc(SCC(=O)OC)nn2C1c1cc(F)cc(F)c1` (stereo unspecified) are 5.06 µM and 7.95 µM. In the same order, the values of `COC(=O)c1ccc(NC(=S)NC(=O)C2CCC2)cc1` are 41.9 µM and 55.9 µM. Regarding `Cc1nn(C(C)(C)C)c(NC(=O)c2ccc(Cl)cc2Cl)c1Br`, the half-maximal inhibitory concentration (IC50) was 2.97 µM and the concentration for an effect of 90% (IC90) is greater than 100 µM. The matching figures for `C/C(=N/Nc1cc(-c2ccccc2)nc(-c2ccccc2)n1)c1ccc(O)cc1`: 9.45 µM and 13.8 µM. As for `CC(=O)Nc1ccc(S(=O)(=O)Nc2ccc(N3CCCCC3)cc2)cc1`, the IC50 was 12.4 µM and the IC90 stood at 13.8 µM. Consider `Cc1ccc(-c2noc(C3CCCN(C(=O)c4ccc(C(C)(C)C)cc4)C3)n2)o1` (stereo unspecified), for which the IC50 is 48.2 µM and the IC90 turned out to be 55.2 µM. For `c1ccc(CC2CCN(C3=Nc4cccc5cccc3c45)CC2)cc1`, the 50% inhibitory concentration (IC50) was 29.3 µM and the concentration for an effect of 90% (IC90) is 38.1 µM. For `CCOC(=O)Cc1csc(NC(=O)c2c(O)c3c(n(CC(C)C)c2=O)CCCC3)n1`, the IC50 was 5.19 µM and the IC90 was 72 µM.

In the case of `C/C(=N\NC(=O)c1ccc(O)cc1)c1ccc2c(c1)Nc1ccccc1S2`, the IC50 was 24.8 µM and the IC90 is 62.8 µM. Regarding `CSc1ccc(CNC(=O)c2ccc(NC(=O)C3=CSCCO3)cc2)cc1`, the IC50 was 0.66 µM and the 90% effect concentration (IC90) was greater than 100 µM. The matching figures for `CCn1c2ccccc2c2cc(CN3CCN(Cc4cc(OC)ccc4O)CC3)ccc21`: 16.8 µM and 23.5 µM. As to `COc1cc(C)ccc1OCCOc1c(C)cc(Cl)cc1Cl`, the half-maximal inhibitory concentration (IC50) is 21.6 µM and the IC90 is greater than 100 µM. With `CC(=O)c1c(N2CCCC2)[nH]c(-c2ccccc2)nc1=S`, the concentration for half-maximal inhibition (IC50) is 16.2 µM and the 90% effect concentration (IC90) turned out to be 67.1 µM. Compound `C/C(=C\C(=O)c1ccccc1)Nc1ccc(Cl)c(Br)c1` registered a 90% effect concentration (IC90) greater than 100 µM.

As to `N/C(=N\OC(=O)Nc1ccc(Cl)c(Cl)c1)c1ncc(C(F)(F)F)cc1Cl`, the IC50 is 41.9 µM and the 90% effect concentration (IC90) worked out at 45.8 µM.

Consider `CC(C)c1ccc(N2C(=O)NC(=O)/C(=C\C=C\c3ccco3)C2=O)cc1`, for which the IC50 is 22.1 µM and the IC90 came to 35.7 µM.

`O=C(c1cnn2c(C(F)F)cc(-c3ccccc3)nc12)N1CCc2ccccc2C1`: the IC50 was 40.4 µM and the 90% effect concentration (IC90) is 49 µM. In the case of `CC1=CC(=O)c2c(O)ccc(O)c2C1=O`, the IC50 is 8.02 µM and the concentration for an effect of 90% (IC90) is 12.2 µM. In the same order, the values of `NC(=O)N=Nc1c2[nH]c3ccccc3nc-2c2ccccc12` are 4.36 µM and 7.08 µM.

As for `Cn1cnc([N+](=O)[O-])c1Sc1ccc(Br)cc1`, the IC50 was 8.81 µM and the IC90 came out at 16.9 µM. As to `CC(C)C(=O)Nc1cccc(-c2nc3ccccc3c(=O)o2)c1`, the IC50 was 44.3 µM and the concentration for an effect of 90% (IC90) was greater than 100 µM. As to `COc1ccc(/C=C/CN2CCC(CO)(Cc3ccccc3Cl)CC2)cc1`, the IC50 was 23.1 µM and the 90% effect concentration (IC90) is 26.6 µM. Turning to `O=[N+]([O-])c1cccnc1N1CCC(c2cc(-c3cccc(C(F)(F)F)c3)n[nH]2)CC1`, the IC50 is 23.1 µM and the concentration for an effect of 90% (IC90) came out at 26.1 µM. In the case of `CCC1CSC(Nc2ccc(C(=O)/C=C/c3cccc(C)c3)cc2)=N1` (stereo unspecified), the half-maximal inhibitory concentration (IC50) was 18.9 µM and the IC90 turned out to be 27.3 µM.

For the compound `CCCC12CN3CC(CCC)(CN(C1)C3c1ccccn1)C2=O` (stereo unspecified), the IC50 was 1.02 µM and the IC90 came out at 18.1 µM.

Turning to `COc1cc(NC(=O)c2ccc(COc3ccccc3Br)o2)cc(OC)c1OC`, the IC50 is 44.3 µM and the IC90 was greater than 100 µM.

Regarding `Cc1ccc(OCCN2CCN(c3ncnc4sc(C)c(C)c34)CC2)cc1`, the IC50 is 93.7 µM and the concentration for an effect of 90% (IC90) was greater than 100 µM. In the same order, the values of `Cc1c(Cl)cccc1NC(=O)CN1CCC(C(O)(c2ccccc2)c2ccccc2)CC1` are 36.1 µM and greater than 100 µM. The matching figures for `CCOC(=O)c1ccc(N=Cc2nc3ccccc3n2C)cc1`: 63.5 µM and greater than 100 µM. The matching figures for `COC(=O)c1ccc(Cn2cc(C(F)(F)F)cc([N+](=O)[O-])c2=O)cc1`: less than 0.2 µM and 23.7 µM.

For `CSc1nn(-c2ccc(C(=O)OCC(=O)NC(=O)NC(C)C)cc2)c(=S)s1`, the IC50 was 23.1 µM and the IC90 worked out at 25.9 µM. With `Cc1cc2c(N=O)c(NO)ccc2[nH]1`, the concentration for half-maximal inhibition (IC50) was 10.3 µM and the concentration for an effect of 90% (IC90) was 15 µM. For the compound `CCOc1ccc(NC(=O)CCc2nnc3ccc(N4CCC(C)CC4)nn23)cc1`, the concentration for half-maximal inhibition (IC50) was 8.75 µM and the IC90 was 15.3 µM.

Turning to `COc1ccc(-c2cc(-c3ccc(OC)cc3)[nH]n2)cc1`, the concentration for half-maximal inhibition (IC50) is 0.33 µM and the concentration for an effect of 90% (IC90) was 1 µM. For `Cc1ccc(C2=NCCn3c2c2ccccc2[n+]3[O-])cc1`, the IC50 is 22.6 µM and the 90% effect concentration (IC90) was determined as 38.9 µM.

Regarding `CC1=CC(=O)C(C(C)C)=C/C1=N/OS(=O)(=O)c1ccccc1`, the concentration for half-maximal inhibition (IC50) is 1.44 µM and the concentration for an effect of 90% (IC90) was 4.12 µM. On to `Cc1cccc(NS(=O)(=O)c2ccc(C(=O)N3CCN(c4ccccc4O)CC3)cc2)c1C`, for which the IC50 was 75.3 µM and the IC90 is greater than 100 µM.

As for `CC(=O)CCSc1ncnc2sc(-c3ccccc3)cc12`, the IC90 is greater than 100 µM. For `COc1ccc(OCCCC(=O)OC(C)C(=O)Nc2ccccc2[N+](=O)[O-])cc1` (stereo unspecified), the 50% inhibitory concentration (IC50) is 15.4 µM and the 90% effect concentration (IC90) was greater than 100 µM. With `Cc1sc2ncnc(N3CCC(C(=O)NCC(=O)Nc4ccc(F)c(F)c4)CC3)c2c1C`, the IC50 was 37.9 µM and the IC90 was 50 µM. For the compound `Cc1ccc2[nH]c3c(N4CCN(Cc5ccccc5)CC4)ncnc3c2c1`, the concentration for half-maximal inhibition (IC50) was 22.3 µM and the concentration for an effect of 90% (IC90) stood at 42.6 µM. Consider `NNC(=S)Nc1ccccc1Cl`, for which the IC50 is 24.4 µM and the concentration for an effect of 90% (IC90) worked out at 27.8 µM. The matching figures for `COc1ccc(C(=O)COC(=O)[C@H](C)Nc2ccc(C(F)(F)F)cc2[N+](=O)[O-])cc1`: 11.2 µM and greater than 25 µM. Turning to `Cc1cccc(NC(=O)CCSc2nnc(Cc3ccccc3)o2)c1`, the IC50 was 17.1 µM and the IC90 worked out at 49.3 µM.

Values taken from PubChem BioAssay AID449762 (Southern Research Specialized Biocontainment Screening …, 2010).
